Patent publication US20230226100A1, “CYCLODEXTRIN BASED ANTI-MICROBIAL THERAPY” (University of Southern California, priority 2020, published 2023)

What was measured:
Type in all cases: cell-based
[1] = test system: A549; experiment: Alamar Blue chemical dye penetration through barrier, A549
Experimental: (§1) Studies test efficacy barrier to prevent chemical dye penetration. We used a resurazine dye that can penetrate across cellular membranes where it is […] to form a purple color and is quantifiable using fluorescence or visible light. Chemical exposure used Alamar Blue which was incubated for 4 hours. The ability of the barrier formulation to prevent chemical penetration was measured at 570 nm and confirmed using fluorescence intensity (560/590 nm) readings. A concentration dependent response to HPBCD was observed over four hours of incubation. The chemical dye penetration was reduced with increasing percent beta cyclodextrin across all timepoints (FIG. 5).
The ability to block chemical exposure was also conducted in the other cyclodextrins namely hydroxypropyl gamma cyclodextrin (HPGCD), sulfonylbutyl ethyl beta cyclodextrins (SBEBCD), and randomly methylated methyl beta cyclodextrins (CRYSMEB) and incubating over 4 hours. The ability of the barrier formulations to prevent chemical penetration was measured at an absorbance of 570 nm and confirmed using fluorescence intensity (560/590 nm) readings. […] The addition of HEC improved the ability to prevent chemical penetration (Table 2). Although the data is unexpected, it allows for further probe into the effect of these cyclodextrin derivatives on viral particles which may be bigger and more hydrophobic.
(§2) To determine the ability of the candidate nanoscale barrier to prevent chemical penetration, epithelial cells (e.g., HEK293T, A549, Vero-E6 ACE2) were seeded at 1×10^4 cells per well and incubated in DMEM till confluence. Cyclodextrin-based formation candidates were tested at various concentrations from 0 to 20% was added at varying concentrations (% w/v) and incubated for 0.5 h prior to the addition of the Alamar Blue. Alamar Blue is able to penetrate the cell, where viable cells are able to reduce the resazurin-based solution to quantitatively measure level of penetration.

[2] = test system: HEK293T; experiment: Alamar Blue chemical dye penetration through barrier, HEK293T
Experimental: as §1, §2

[3] = test system: A549 cells; experiment: Safety of barriers: A549 cell morphology; conditions: 5% concentrations; incubated 1 h; 10× magnification
Experimental: During protection of mucocutaneous linings, barriers will be exposed repeatedly due to frequent dosing. A critical criterion for selecting the right cyclodextrin for a nanoformulation barrier usable in this application is the safety of the cyclodextrin type. A549 cells were seeded at 4×10^4 cells per well and grown to confluence. Cyclodextrin-based formation candidates were tested at 5% concentrations and incubated for 1 h prior to the addition. The barrier was then replaced with media for evaluation. Pictures were taken for at least five field views at 10× magnification.

[4] = test system: pLV[Exp]-Puro-CMV>EGFP lentivirus; experiment: EGFP lentivirus infection of HEK293T cells in presence of barrier
Experimental: To simulate viral infection, we used lentivirus that has green fluorescent protein (GFP) incorporated into its gene. Lentivirus are designed to be highly efficient to transfect epithelial cells such as HEK293T. The effect of HPBCD barrier to present viral infection was evaluated using a concentration escalation study, where HPBCD ranged from 0 to 25% (w/v). In this study, we used a pLV[Exp]-Puro-CMV>EGFP lentivirus to infect HEK293T.
Human muco-ciliary deposition and clearance of exogenous substances occurs in 30 minutes as determined through real time methodology (Thrall et al., Inhalation Toxicology, 2003. 15(6): p. 523-538). Subsequently the EGFP lentivirus was incubated in the presence and absence of the HPBCD barrier for reduced time periods (0.5 h and 2 h) to reflect applicability of a HPBCD nasal spray. After the incubation period, barriers were removed, and cells were washed with 1×PBS before replacement with complete cell culture medium. 24 hours post-incubation at 5% CO2 and 37 degrees C., fluorescence imaging was conducted using the Biotek Cytation 5 imaging device in which 4×GFP images were taken. […] After 30 minutes of incubation with the virus, there is 50% reduction of viral infectivity as measured by fluorescence signal using 5% HPBCD.
To test the ability to prevent viral Epithelial cells (e.g., HEK293T, A549, Vero-E6 ACE2) were used a models chemical and viral infections. Cells were seeded onto 96-well plates at a density of 10^4 cells per well and incubated in DMEM (phenol red free) with 10% FBS and 1% non-essential ammino acids (NEAA). Cells were allowed to attach and grown to confluence to allow for cell polarization prior to experimentation.
Cyclodextrin was added at varying concentrations (% w/v) and incubated for 0.5 h prior to the addition of the virus. Polybrene added at a final concentration of 5 ug/mL to promote viral uptake. Cells were then infected with pLV[Exp]-Puro-CMV>EGFP lentivirus and incubated at 37° C., 5% CO2 for 0.5, 2, or 24 h depending upon the experimental setup. After the incubation time, the beta cyclodextrin solution was removed and cells washed with 1×PBS twice prior to the addition of complete growth medium (DMEM). GFP lentivirus was imaged using the Cytation 5 (Biotek) and relative fluorescence quantified using the Synergy H1 microplate reader (Biotek).

[5] = test system: Vero-E6 ACE2; experiment: Alamar Blue chemical dye penetration through barrier, Vero-E6 ACE2
Experimental: as §1, §2

[6] = Table 2, confluent A549, 2.5% cyclodextrin (+ HEC: 0.188% HEC), 2 hr, negative values = increase in fluorescence intensity
[7] = Table 2, confluent A549, 2.5% cyclodextrin (+ HEC: 0.188% HEC), 4 hr, negative values = increase in fluorescence intensity
[8] = Table 2, confluent A549, 5% cyclodextrin (+ HEC: 0.375% HEC), 2 hr, negative values = increase in fluorescence intensity
[9] = Table 2, confluent A549, 5% cyclodextrin (+ HEC: 0.375% HEC), 4 hr, negative values = increase in fluorescence intensity
[10] = Table 2, confluent A549, 10% cyclodextrin (+ HEC: 0.75% HEC), 2 hr, negative values = increase in fluorescence intensity
[11] = Table 2, confluent A549, 10% cyclodextrin (+ HEC: 0.75% HEC), 4 hr, negative values = increase in fluorescence intensity
[12] = confluent A549, incubation over 4 hours
[13] = 2.5% HPBCD (Combination: + 0.188% HEC), 2 hr
[14] = 2.5% HPBCD (Combination: + 0.188% HEC), 4 hr
[15] = 5% HPBCD (Combination: + 0.375% HEC), 2 hr
[16] = 5% HPBCD (Combination: + 0.375% HEC), 4 hr
[17] = 10% HPBCD (Combination: + 0.75% HEC), 2 hr
[18] = 10% HPBCD (Combination: + 0.75% HEC), 4 hr

2-Hydroxypropyl-Gamma-cyclodextrin [HPGCD]
Percent Reduction Compared to No Barrier Treatment (Mean ± SD) [1, 6]: −89.9 ± 3.8%
Percent Reduction Compared to No Barrier Treatment (Mean ± SD) [1, 7]: −244.5 ± 3.0%
Percent Reduction Compared to No Barrier Treatment (Mean ± SD) [1, 8]: −46.7 ± 2.4%
Percent Reduction Compared to No Barrier Treatment (Mean ± SD) [1, 9]: −210.66 ± 3.0%
Percent Reduction Compared to No Barrier Treatment (Mean ± SD) [1, 10]: −13.1 ± 1.4%
Percent Reduction Compared to No Barrier Treatment (Mean ± SD) [1, 11]: −97.0 ± 2.1%
chemical dye penetration (in words) [1, 12]: enhanced chemical dye penetration

sulfobutyl ether-beta-cyclodextrin [SBEBCD]
Percent Reduction Compared to No Barrier Treatment (Mean ± SD) [1, 6]: 10.7 ± 2.57%
Percent Reduction Compared to No Barrier Treatment (Mean ± SD) [1, 7]: −244.5 ± 3.0%
Percent Reduction Compared to No Barrier Treatment (Mean ± SD) [1, 8]: 39.5 ± 1.2%
Percent Reduction Compared to No Barrier Treatment (Mean ± SD) [1, 9]: −218.2 ± 13.2%
Percent Reduction Compared to No Barrier Treatment (Mean ± SD) [1, 10]: 51.3 ± 2.4%
Percent Reduction Compared to No Barrier Treatment (Mean ± SD) [1, 11]: −108.2 ± 19.5%
chemical dye penetration (in words) ([1]; confluent A549, 2 h timepoint): dose-dependent reduction in chemical dye penetration
chemical dye penetration (in words) [1, 12]: enhanced chemical dye penetration

CC(O)COC[C@H]1O[C@@H]2O[C@H]3[C@H](O)[C@@H](O)[C@@H](O[C@H]4[C@H](O)[C@@H](O)[C@@H](O[C@H]5[C@H](O)[C@@H](O)[C@@H](O[C@H]6[C@H](O)[C@@H](O)[C@@H](O[C@H]7[C@H](O)[C@@H](O)[C@@H](O[C@H]8[C@H](O)[C@@H](O)[C@@H](O[C@H]1[C@H](O)[C@H]2O)O[C@@H]8COCC(C)O)O[C@@H]7COCC(C)O)O[C@@H]6COCC(C)O)O[C@@H]5COCC(C)O)O[C@@H]4COCC(C)O)O[C@@H]3COCC(C)O (stereo partly drawn) [HPBCD, (2-Hydroxypropyl)-Beta-Cyclodextrin]
Percent Reduction Compared to No Barrier Treatment (Mean ± SD) [2, 13]: 70.4 ± 1.7%
Percent Reduction Compared to No Barrier Treatment (Mean ± SD) [2, 14]: 71.7 ± 0.8%
Percent Reduction Compared to No Barrier Treatment (Mean ± SD) [2, 15]: 77.5 ± 0.6%
Percent Reduction Compared to No Barrier Treatment (Mean ± SD) [2, 16]: 80.4 ± 0.8%
Percent Reduction Compared to No Barrier Treatment (Mean ± SD) [2, 17]: 79.8 ± 0.6%
Percent Reduction Compared to No Barrier Treatment (Mean ± SD) [2, 18]: 84.3 ± 0.6%
chemical dye (Alamar blue) penetration, relative fluorescence intensity vs no treatment ([2]; FIG. 5, P<0.01): statistically significant reduction
A549 cell morphology / cell death [3]: No significant changes in cellular morphology or cell death
viral infectivity (GFP expressing lentiviruses) ([4]; 5-20% HPBCD alone): able to reduce viral infectivity
signs of lentivirus infection ([4]; 20% HPBCD alone as a barrier): No signs of lentivirus infection
infectivity in HEK cells ([4]; 0.5 h and 2 h incubation, p<0.05 and p<0.01 respectively): concentration dependent decrease in infectivity
reduction of viral infectivity as measured by fluorescence signal ([4]; HEK293T, 5% HPBCD, 30 minutes of incubation with the virus): 50%
lentivirus infectivity ([4]; HEK293T, MOI of 5, 6 hours, 10% and 20% HPBCD, p≤0.01): reduced lentivirus infectivity
Percent Reduction Compared to No Barrier Treatment (Mean ± SD) [5, 13]: 62.8 ± 2.0%
Percent Reduction Compared to No Barrier Treatment (Mean ± SD) [5, 14]: 67.1 ± 1.8%
Percent Reduction Compared to No Barrier Treatment (Mean ± SD) [5, 15]: 70.2 ± 1.2%
Percent Reduction Compared to No Barrier Treatment (Mean ± SD) [5, 16]: 76.9 ± 0.6%
Percent Reduction Compared to No Barrier Treatment (Mean ± SD) [5, 17]: 73.5 ± 1.2%
Percent Reduction Compared to No Barrier Treatment (Mean ± SD) [5, 18]: 82.5 ± 0.9%
Percent Reduction Compared to No Barrier Treatment (Mean ± SD) ([1]; A549, 2.5% HPBCD (Combination: + 0.188% HEC), 2 hr): 82.5 ± 1.4%
Percent Reduction Compared to No Barrier Treatment (Mean ± SD) ([1]; A549, 2.5% HPBCD (Combination: + 0.188% HEC), 4 hr): 66.9 ± 1.9%
Percent Reduction Compared to No Barrier Treatment (Mean ± SD) ([1]; A549, 5% HPBCD (Combination: + 0.375% HEC), 2 hr): 88.5 ± 0.7%
Percent Reduction Compared to No Barrier Treatment (Mean ± SD) ([1]; A549, 5% HPBCD (Combination: + 0.375% HEC), 4 hr): 81.5 ± 0.7%
Percent Reduction Compared to No Barrier Treatment (Mean ± SD) ([1]; A549, 10% HPBCD (Combination: + 0.75% HEC), 2 hr): 89.3 ± 0.6%
Percent Reduction Compared to No Barrier Treatment (Mean ± SD) ([1]; A549, 10% HPBCD (Combination: + 0.75% HEC), 4 hr): 82.9 ± 0.9%

crystalline methylated beta-cyclodextrin [CRYSMEB]
A549 cell morphology / cell death [3]: cellular death and cellular morphological changes
chemical dye penetration (in words) ([1]; A549, across all timepoints): reduced in a dose-dependent manner
Percent Reduction Compared to No Barrier Treatment (Mean ± SD) [1, 6]: 36.0 ± 2.3%
Percent Reduction Compared to No Barrier Treatment (Mean ± SD) [1, 7]: 35.3 ± 1.9%
Percent Reduction Compared to No Barrier Treatment (Mean ± SD) [1, 8]: 47.9 ± 0.8%
Percent Reduction Compared to No Barrier Treatment (Mean ± SD) [1, 9]: 52.3 ± 2.6%
Percent Reduction Compared to No Barrier Treatment (Mean ± SD) [1, 10]: 58.5 ± 1.4%
Percent Reduction Compared to No Barrier Treatment (Mean ± SD) [1, 11]: 67.6 ± 2.3%
